Laboratory results reported in US6509163B1, “Methods of screening modulators of mammalian P2X7 purinergic receptors” (Glaxo Group Limited, priority 1997, dated 2003).

Biological target: T1, r-hP2X7 (rat 1-346, human 347-595) (Rattus norvegicus, UniProt Q64663, A359S/A378V/A493C/A522V/A540S/C350F/D413N/D475V/E375Q/E438D/E521H/E537D/E539D/G538V/H448D/I354L/I464K/I516L/I541T/K419R/K544R/K576R/L353F/L437T/L525F/M459I/N356D/N481S/N490S/P390S/P407S/Q433A/Q463R/Q505A/Q585E/R366H/R491H/R501K/S370W/S443P/S445A/S449T/S514R/S552C/T348A/T361N/T434M/T584S/V367I/V467T/V559G/W410R/Y593S)
T1 construct: r-hP2X7 (rat 1-346, human 347-595); expressed in transfected cells; host or cells: HEK293 (transient)
T1 sequence (Q64663 1-595 T348A/C350F/L353F/I354L/N356D/A359S/T361N/R366H/V367I/S370W/E375Q/A378V/P390S/P407S/W410R/D413N/K419R/Q433A/T434M/L437T/E438D/S443P/S445A/H448D/S449T/M459I/Q463R/I464K/V467T/D475V/N481S/N490S/R491H/A493C/R501K/Q505A/S514R/I516L/E521H/A522V/L525F/E537D/G538V/E539D/A540S/I541T/K544R/S552C/V559G/K576R/T584S/Q585E/Y593S): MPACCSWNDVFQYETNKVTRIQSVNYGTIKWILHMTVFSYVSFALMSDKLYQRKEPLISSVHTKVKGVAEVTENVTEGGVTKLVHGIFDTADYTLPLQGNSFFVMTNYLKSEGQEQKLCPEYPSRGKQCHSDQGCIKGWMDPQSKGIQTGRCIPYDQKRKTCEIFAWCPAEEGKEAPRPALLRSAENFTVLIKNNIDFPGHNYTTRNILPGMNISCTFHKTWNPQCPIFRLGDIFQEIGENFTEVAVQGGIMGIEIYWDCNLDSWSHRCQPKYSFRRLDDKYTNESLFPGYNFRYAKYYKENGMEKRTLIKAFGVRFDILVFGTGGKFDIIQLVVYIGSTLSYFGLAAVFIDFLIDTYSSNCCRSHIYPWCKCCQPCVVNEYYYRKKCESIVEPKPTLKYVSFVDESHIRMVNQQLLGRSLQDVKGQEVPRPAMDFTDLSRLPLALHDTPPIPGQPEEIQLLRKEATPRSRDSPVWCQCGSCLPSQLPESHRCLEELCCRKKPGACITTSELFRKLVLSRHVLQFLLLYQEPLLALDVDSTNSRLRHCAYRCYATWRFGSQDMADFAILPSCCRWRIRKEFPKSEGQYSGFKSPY
Test: Whole-cell recordings in HEK293 cells expressing chimeric r-hP2X7 receptors
Type: cell-based
Conditions: low divalent concentrations, after removal of BzATP, n=10
Excerpt: Chimeras. A silent restriction site (NheI) was introduced at the equivalent positions in the rat and human cDNAs using the Pfu mutagenesis kit (Stratagene) (T to G at 1069 in rP2X7; G to A at 1072 in hP2X7) . A NheI-XhoI fragment corresponding to 3′ extremity of each cDNA was then excised and subcloned in the opposite plasmid (i.e. human 3′ end into rat background). The resulting chimeras were h-rP2X7 (human 1-346, rat 347-595) and r-hP2X7 (rat 1-346, human 347-595) (FIG. 5). All constructions were sequenced on their entire coding region.
Cell culture. HEK293 cells were transiently transfected with cDNA (1 μg/ml) and lipofectin dissolved in Optimem (GIBCO) placed into petri dishes containing four coverslips onto which cells were plated at a density of about 8×10^4/coverslip. Cells were washed 5 h later and normal DMEM applied. Electrophysiological studies or dye uptake measurements were carried out 18-49 h later. For each set of transfections, parallel experiments were performed on HEK cells transfected with cDNA encoding both rP2X7 and hP2X7 receptors.
Electrophysiological experiments. Whole-cell recordings were made using the EPC9 patch-clamp amplifier and Pulse acquisition programs (HEKA, Lambrecht, Germany). Patch pipettes (5-7 MΩ) contained (mM) CsCl or NaCl 154, EGTA 10, HEPES 5. […]

Nc1ncnc2c1ncn2[C@@H]1O[C@H](COP(=O)(O)OP(=O)(O)OP(=O)(O)O)[C@@H](OC(=O)c2ccc(C(=O)c3ccccc3)cc2)[C@H]1O [BzATP, 3′-O-(4-benzoyl)benzoyl ATP]
current measured at 30 s, of peak: 31±3
